Assays:
HRV14 or HRV16 = conditions: cited from earlier work
HSV-1 [1] = assay: TCID50 titration of HSV-1 on PER.C6 with acyclovir, CPE score; assay type: cell-based, Herpes Simplex Virus type 1
Procedure: (§1) FIG. 16. Virustatic activity of acyclovir for Herpes Simplex Virus type 1 and type 2 (HSV-1 and HSV-2) using PER.C6 cells as a substrate for virus replication and TCID50 calculations based on CPE score on day 6 post infection.
(§2) To test the feasibility of PER.C6 for antiviral drug screening, the acyclovir/HSV system was used. A TCID50 titration of both a HSV-1 as well as a HSV-2 stock virus produced on PER.C6 (titer 6000 TCID50/ml) was performed in either the absence or in the presence of different concentrations of acyclovir. PER.C6 cells were seeded in a 96-wells tissue culture plate at a concentration of 1×10^5 cells/well, in normal culture medium, DMEM (Gibco) supplemented with heat inactivated FBS (origin US, Gibco) and 1 ml 4.9 M MgCl2 (Sigma). The day after seeding, cells were pre-incubated with the appropriate acyclovir (20 mg/ml, Genthon) concentration being, 200, 20, 2, 0,2 and 0 μg/ml, diluted in normal culture medium, for 2 hours at 37° C. and 10% CO2. A total of 20 wells were used per concentration. […]
(§3) At day 6 post infection, CPE was scored in each of the wells and TCID50 calculated according to the Karber method (1931), which is well known to persons skilled in the art. In addition, viable cells were scored with the MTS assay. […] 10% CO2, followed by reading the OD490 in an ELISA reader.

HSV-2 [2] = assay: Viable cell scoring by MTS assay of HSV-2 infected PER.C6 with acyclovir; assay type: cell-based, Herpes Simplex Virus type 2; conditions: HSV-2 on PER.C6; day 6 post infection
Procedure: (§4) FIG. 17. Virustatic effect of acyclovir against (A) HSV-1 and (B) HSV-2 using infection of PER.C6 with different 10 fold serial dilutions of virus and viable cell scoring by MTS assay on day 6 post infection.
as §2, §3

HSV-1 [3] = assay: Viable cell scoring by MTS assay of HSV-1 infected PER.C6 with acyclovir; assay type: cell-based, Herpes Simplex Virus type 1; conditions: HSV-1 on PER.C6; day 6 post infection
Procedure: as §4, §2, §3

HSV-2 [4] = assay: TCID50 titration of HSV-2 on PER.C6 with acyclovir, CPE score; assay type: cell-based, Herpes Simplex Virus type 2
Procedure: as §1, §2, §3

HSV = conditions: A549 cells; cited from earlier work

| Compound | cytopathic effect in infected cells (HRV14 or HRV16; cells infected with HRV14 or HRV16) | rhinovirus replication in vitro (HRV14 or HRV16; in vitro) | TCID50 reduction as compared to the control (HSV-1 [1]; HSV-1 on PER.C6, 20 μg/ml of acyclovir, CPE score day 6 post infection) [fold] | virustatic effect (HSV-1 [1]; HSV-1 propagated on PER.C6 cells) | viable cells scored with MTS assay compared with TCID50 result (HSV-2 [2]) | prevention of cell death caused by virus (viable cells, MTS) (HSV-1 [3]) | amount of acyclovir for 1000 fold TCID50 reduction, relative to HSV-1 (HSV-2 [4]; HSV-2 on PER.C6, CPE score day 6 post infection) | virustatic effect (HSV-2 [4]; HSV-2 propagated on PER.C6 cells) | HSV replication (HSV) |
| --- | --- | --- | --- | --- | --- | --- | --- | --- | --- |
| c1ccc2c(c1)oc1ccccc12 [Dibenzofuran] | hinder the cytopathic effect | block rhinovirus replication in vitro |  |  |  |  |  |  |  |
| Nc1nc2c(ncn2COCCO)c(=O)[nH]1 [acyclovir, 2-amino-1,9-dihydro-9-[(2-hydroethoxy)methyl]-6H-purin-6-one] |  |  | ~1000 | clear virustatic effect | comparable results were obtained | more effective at a lower dosage in preventing cell death caused by HSV-1 than by HSV-2 | required a higher amount of acyclovir | clear virustatic effect | inhibited HSV replication |

From patent US7163787B2, “Methods for the identification of antiviral compounds” (Crucell Holland B.V., priority 2001, dated 2007)
